According to patent publication US7022711B2, “2-(4-Pyridyl)amino-6-dialkoxyphenyl-pyrido[2,3-d]pyrimidin-7-ones” (Warner-Lambert Company, priority 2000, dated 2006):

Assays:
[1] = Metabolic stability, human liver S9 fraction; assay type: in vitro ADME; conditions: human liver S9, 5 μM, 37° C., 1.0 mM NADPH
Protocol: (§1) Compounds were individually incubated (5 μM in DMSO) with human and mice liver S9 fractions in 50 mM KHPO4 buffer at 37° C. in the presence of 1.0 mM NADPH and additional cofactors. At 0, 10, 20, and 40 minutes, 100 μL aliquots were removed and added to 300 μL of acetonitrile. Standard curves were prepared in a similar manner with each compound. Samples were analyzed for parent concentration by LC-MS/MS. The in vitro metabolic half-life was determined from the concentration-time plots using WinNonlin. These in vitro data represent the rate of oxidative, hydrolytic, and conjugative metabolism.

[2] = test system: Mammary Adenocarcinoma M16/C; experiment: Antitumor activity in vivo, M16/C mammary tumor model; conditions: for CRs, complete regression / T-C (Days), tumor growth delay to 750 mg / T/C (%), median treated tumor mass/median control tumor mass / NSD, nonspecific deaths/total in treatment group: D7-15; for T/C (%), median treated tumor mass/median control tumor mass: 3 days after the end of therapy
Protocol: The anticancer efficacy of the compound of Example 8 was evaluated using a murine mammary […] tumor model, M16/C. This highly vascularized tumor is very aggressive with a doubling time of 1.5 days. Tumor fragments were implanted by trocar fragment in the right axilla of C3H mice on Day 0. The efficacy of treatment was assessed both in an advanced stage model (test compound treatment for nine consecutive days after tumors had reached 100 mg). The compound in Example 8 was dosed once a day over the treatment period by oral gavage in 0.05 M sodium lactate buffer, pH 4. Animals were allowed to continue off therapy until the tumors reached the evaluable size (750 mg). Animal weights were determined throughout the study to provide an estimate of test compound toxicity. A mean weight loss >10% (3–4 g) for any treatment group is an indication of host toxicity. Anticancer activity was evaluated using two methods. The first is %T/C where T=median mass of treated tumors 3 days after the end of therapy, and C=median mass of the control group at that same time point. The highest degree of antitumor activity using this assessment occurs when T=0, and %T/C=0%. […] The second method uses tumor growth delay (T−C), where T=the days for the median treated tumor to reach an evaluable size (750 mg), and C=days for control tumors to reach that same size.

[3] = Metabolic stability, mice liver S9 fraction; assay type: in vitro ADME; conditions: mice liver S9, 5 μM, 37° C., 1.0 mM NADPH
Protocol: as §1

Lck = target: T1, Lck (Homo sapiens, UniProt P06239); experiment: Kinase inhibition assay (DELFIA), Lck; assay type: biochemical; conditions: 40 μM ATP, kinase domain 20 nM
T1 construct: The kinase domains from FGFR-1, VEGFR-2, Lck, and PDGF were purified from baculoviral vectors expression systems; made in house
T1 sequence (P06239 245-498 limits assumed, species assumed): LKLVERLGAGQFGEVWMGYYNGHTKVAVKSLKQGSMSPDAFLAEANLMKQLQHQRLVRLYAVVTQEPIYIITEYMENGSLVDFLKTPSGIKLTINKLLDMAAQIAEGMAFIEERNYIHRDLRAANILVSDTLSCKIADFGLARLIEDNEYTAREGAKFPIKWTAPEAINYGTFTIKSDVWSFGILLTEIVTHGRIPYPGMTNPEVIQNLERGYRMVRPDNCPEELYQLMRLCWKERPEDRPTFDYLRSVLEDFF
Protocol: (§2) The inhibition activity of the compounds in Examples 8, 9, 10, 11, and 12 and Reference Compounds A and B were evaluated using the Dissociated Enhanced Lanthanide Fluoroimmuno Assay (DELFIA) (Frank Loganzo and Carolyn Hardy. A sensitive, time-resolved fluorometric assay for the detection of inhibitors of phosphotyrosine kinases. American Biotechnology Laboratory, December 1998). DELFIA plates (EG&G Wallac, Gaithersburg, Md.) were coated overnight with Poly Glu Tyr (4:1) (Sigma, St. Louis, Mo.) at room temperature, washed (DELFIA wash reagent, EG&G Wallac), and spotted with 1 μL inhibitor dilution or DMSO carrier control per well. In some cases, kinase was autophosphorylated prior to analysis by incubating 45 minutes at 4° C. in the presence of 4 mM ATP and 25 mM MgCl2. A typical 100 μL kinase assay reaction contained 20 mM Tris (pH 7.5), 20 mM MgCl2, 50 mM NaCl, 5 mM DTT, and protease inhibitors (Mini EDTA-free protease inhibitor cocktail tablets, Boehringer Mannheim, Indianapolis, Ind.), 40 μM ATP, and an appropriate concentration of inhibitor. The reaction was allowed to continue for 30 minutes at room temperature. Plates were washed, blocked 30 minutes at room temperature (0.5% bovine serum albumin in DELFIA Assay Buffer, EG&G Wallac), and washed. One hundred microliter europium-conjugated antiphosphotyrosine antibody in DELFIA assay buffer was added to each well. Plates were incubated for 1 hour and decanted. One hundred microliter DELFIA enhancement solution (EG&G Wallac) was added and time-resolved fluorescence of the reactions determined using a VICTOR2 1420 multilable counter (EG&G Wallac). Compounds were tested from 10 through 0.0001 μM. c-Src was (Upstate Biotechnology, Lake Placid, N.Y.) was used at 3 units per reaction. The kinase domains from FGFR-1, VEGFR-2, Lck, and PDGF were purified from baculoviral vectors expression systems and were used in the assays at 20 nM.

[4] = test system: Human umbilical vein endothelial cells (HUVECs); experiment: Serum stimulated HUVEC cell proliferation (Sulphorhodamine B); assay type: cell-based
Protocol: (§3) Human umbilical vein endothelial cells (HUVECs) (Clonetics, Palo Alto, Calif.) were seeded at 2000 cells per well in growth medium containing 2% serum (EGM, Clonetics) and allowed to attach overnight (37° C., 5% CO2, 100% humidity). C6 rat glioma cells (ATCC) were seeded at 600 cells per well and incubated in F10 medium (GIBCO, Gaithersburg, Md.) supplemented with 15% horse serum, 2.5% fetal bovine serum, and 1 mM glutamine. A90 human ovarian cells (Dr. Kent Crickard, SUNY/AB Medical School) were seeded at 600 cells per well in RPMI1640 (GIBCO) plus 10% fetal bovine serum. Plates were incubated overnight (37° C., 5% CO2, 100% humidity) to allow the cells to attach. Test compound dilutions were added to the appropriate wells, and the incubation was continued for 4 additional days. Monolayers were fixed in 10% trichloroacetic acid (30 minutes at 4° C.), washed with distilled water, and stained with Sulphorhodamine B (0.075% in 1% acetic acid) (Sigma). Plates were washed in 1% acetic acid, and the bound dye was solubilized in 100 μL unbuffered Tris base. Absorbance was measured at 540 nm using a reference filter wavelength of 630 nm. Inhibitor potency (IC50) versus cellular proliferation was determined, and endothelial cell selectivity was assessed by comparing the inhibition of HUVEC proliferation to A90 and C6 tumor cell proliferation (Table 3).

c-Src = target: T2, c-Src (Homo sapiens, UniProt P12931); experiment: Kinase inhibition assay (DELFIA), c-Src; assay type: biochemical; conditions: 40 μM ATP, c-Src 3 units per reaction
T2 construct: purchased Upstate Biotechnology, Lake Placid, N.Y
Protocol: as §2

C6 rat glioma cells = experiment: C6 tumor cell proliferation (Sulphorhodamine B); assay type: cell-based; conditions: 4 days with compound
Protocol: as §3

6-(3,5-Dimethoxy-phenyl)-8-ethyl-2-(pyridin-4-ylamino)-8H-pyrido[2,3-d]pyrimidin-7-one [Example 8]
HS9 in vitro metabolic half-life [1]: >3.33 h
CRs, complete regression ([2]; 5 mg/kg, oral): 0/6
T-C (Days), tumor growth delay to 750 mg ([2]; 5 mg/kg, oral): 4.3 days
T/C (%), median treated tumor mass/median control tumor mass ([2]; 5 mg/kg, oral): 39%
NSD, nonspecific deaths/total in treatment group ([2]; 10 mg/kg, oral): 0/6
T-C (Days), tumor growth delay to 750 mg ([2]; 10 mg/kg, oral): 7.9 days
T/C (%), median treated tumor mass/median control tumor mass ([2]; 10 mg/kg, oral): 15%
CRs, complete regression ([2]; 20 mg/kg, oral): 4/6
NSD, nonspecific deaths/total in treatment group ([2]; 20 mg/kg, oral): 0/6
T-C (Days), tumor growth delay to 750 mg ([2]; 20 mg/kg, oral): 10.7 days
T/C (%), median treated tumor mass/median control tumor mass ([2]; 20 mg/kg, oral): 0%
CRs, complete regression ([2]; 40 mg/kg, oral): 6/6
NSD, nonspecific deaths/total in treatment group ([2]; 40 mg/kg, oral): 0/6
T-C (Days), tumor growth delay to 750 mg ([2]; 40 mg/kg, oral): 12.4 days
T/C (%), median treated tumor mass/median control tumor mass ([2]; 40 mg/kg, oral): 0%
regression of tumors below the level of palpation ([2]; 40 and 20 mg/kg dose levels): complete regressions
tumor growth delay (T−C) relative to duration of therapy ([2]; 40 and 20 mg/kg dose levels): greater than the duration of therapy
anticancer activity (%T/C) ([2]; all four doses tested): meaningful anticancer activity
tolerability ([2]; all four doses tested, oral, nine consecutive days): well-tolerated
MS9 in vitro metabolic half-life [3]: >3.33 h
Ki (Lck): 1.79 µM
IC50 ([4]; 2% serum growth medium, 4 days with compound): 0.009 µM
selectivity for serum-stimulated endothelial cell proliferation ([4]; HUVEC compared to A90 and C6 tumor cell proliferation): selective inhibitors
IC50 (c-Src): 36.5 µM
IC50 (C6 rat glioma cells): > 25 µM
